The results in this text go back to ChEMBL document CHEMBL2062364, “Discovery and optimization of new benzimidazole- and benzoxazole-pyrimidone selective PI3Kβ inhibitors for the treatment of phosphatase and TENsin homologue (PTEN)-deficient cancers” (J Med Chem, 2012).

Converted amounts (≈) assume the structure as drawn.

The nature of data set [1]: AUC (0 to infinity) in CB17/ICR-Prkdc SCID mouse at 6 mg/kg, iv. The conditions noted are these: plasma. Set-up: time infinity, dose 6 mg/kg, route intravenous. The data set is classed as ADME, organism-based.
Data set [2] in a line: Thermodynamic solubility of the compound in phosphate buffer at pH 7.4 after 16 hrs by HPLC analysis. As to conditions: read-out: Therm_solubility; call rule not given here. Format: physicochemical.
Data set [3] can be described thus: Drug uptake in tumor of SCID mouse xenografted with PTEN-deficient human PC3 cells at 300 mg/kg, po BID measured after 24 hrs. Set-up: dose 300 mg/kg, route oral. The conditions noted are these: read-out: Drug uptake. Format: ADME, organism-based, Neoplasm, PC-3.
A short description of data set [4]: Drug uptake in tumor of SCID mouse xenografted with PTEN-deficient human PC3 cells at 300 mg/kg, po BID measured after 0.5 hrs. The data set is classed as ADME, organism-based, Neoplasm, PC-3. Set-up: dose 300 mg/kg, route oral. As to conditions: read-out: Drug uptake. (In general: A xenograft is tissue or cells of one species grown in another, often human tumour cells in immunodeficient mice.)

A short description of data set [5]: Terminal half life in CB17/ICR-Prkdc SCID mouse at 10 mg/kg, po. Format: ADME, organism-based. Also noted: dose 10 mg/kg, route oral. The conditions noted are these: in vivo, read-out: beta t1/2 (converted).
Data set [6] is described as follows: AUC (0 to 24 hrs) in CB17/ICR-Prkdc SCID mouse at 6 mg/kg, iv. The data set is classed as ADME, organism-based. Set-up: time < 24 hr, dose 6 mg/kg, route intravenous. The conditions noted are these: plasma.
A short description of data set [7]: Oral bioavailability in CB17/ICR-Prkdc SCID mouse at 10 mg/kg. The conditions noted are these: in vivo. The data set is classed as ADME, organism-based.
For data set [8], the target named is Phosphatidylinositol 4,5-bisphosphate 3-kinase catalytic subunit gamma isoform (Homo sapiens, UniProt P48736). The data set can be described thus: Inhibition of human PI3Kgamma-mediated Akt phosphorylation at Ser473 residue expressed in mouse RAW264.7 cells after 0.5 to 2 hrs by Western blot analysis. The data set is classed as cell-based. A general note: A western blot detects proteins with antibodies after separation by electrophoresis.
Chain of Phosphatidylinositol 4,5-bisphosphate 3-kinase catalytic subunit gamma isoform (P48736 whole entry, canonical isoform): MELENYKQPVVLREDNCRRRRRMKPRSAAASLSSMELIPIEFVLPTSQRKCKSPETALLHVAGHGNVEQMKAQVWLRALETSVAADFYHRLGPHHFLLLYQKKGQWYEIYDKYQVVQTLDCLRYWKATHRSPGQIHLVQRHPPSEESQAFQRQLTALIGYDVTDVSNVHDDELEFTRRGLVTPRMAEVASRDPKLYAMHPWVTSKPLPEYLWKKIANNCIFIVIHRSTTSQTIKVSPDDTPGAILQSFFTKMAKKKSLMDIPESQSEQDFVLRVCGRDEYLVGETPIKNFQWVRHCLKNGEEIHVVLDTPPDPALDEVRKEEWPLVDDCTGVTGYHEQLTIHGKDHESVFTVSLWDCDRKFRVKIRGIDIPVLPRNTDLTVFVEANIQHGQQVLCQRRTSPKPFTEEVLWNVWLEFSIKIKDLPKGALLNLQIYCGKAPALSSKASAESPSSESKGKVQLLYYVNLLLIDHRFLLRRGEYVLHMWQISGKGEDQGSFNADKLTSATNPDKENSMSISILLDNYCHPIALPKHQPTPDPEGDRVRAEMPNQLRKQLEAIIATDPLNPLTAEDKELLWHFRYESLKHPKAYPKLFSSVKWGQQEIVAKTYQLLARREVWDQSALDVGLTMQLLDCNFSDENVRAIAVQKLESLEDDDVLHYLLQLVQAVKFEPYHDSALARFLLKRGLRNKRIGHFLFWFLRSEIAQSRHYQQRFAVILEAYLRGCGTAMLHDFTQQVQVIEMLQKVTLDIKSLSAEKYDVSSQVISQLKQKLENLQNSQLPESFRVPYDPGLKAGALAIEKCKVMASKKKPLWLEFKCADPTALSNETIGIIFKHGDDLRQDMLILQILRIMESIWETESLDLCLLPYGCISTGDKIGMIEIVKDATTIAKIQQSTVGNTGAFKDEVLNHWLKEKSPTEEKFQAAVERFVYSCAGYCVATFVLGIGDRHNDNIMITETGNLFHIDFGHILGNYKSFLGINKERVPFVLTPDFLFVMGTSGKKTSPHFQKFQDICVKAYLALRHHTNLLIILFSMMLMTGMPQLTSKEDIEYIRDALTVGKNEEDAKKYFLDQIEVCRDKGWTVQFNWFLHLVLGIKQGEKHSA

Data set [9] can be described thus: C0 in CB17/ICR-Prkdc SCID mouse at 6 mg/kg, iv. The data set is classed as ADME, organism-based. Set-up: dose 6 mg/kg, route intravenous. As to conditions: in vivo.
Data set [10] has as its target T1, Phosphatidylinositol 4,5-bisphosphate 3-kinase catalytic subunit alpha isoform (Homo sapiens, UniProt P42336). In words: Inhibition of human PI3Kalpha-mediated Akt phosphorylation at Ser473 residue expressed in human H460 cells after 0.5 to 2 hrs by Western blot analysis. Format: cell-based.
Data set [11] can be described thus: Plasma concentration in SCID mouse xenografted with PTEN-deficient human PC3 cells at 300 mg/kg, po BID measured after 1 hr. Format: ADME, organism-based, PC-3. Set-up: dose 300 mg/kg, route oral.
Data set [12] has as its target T1, Phosphatidylinositol 4,5-bisphosphate 3-kinase catalytic subunit alpha isoform. In words: Inhibition of N-terminus poly-His tagged human PI3Kalpha expressed in baculovirus infected insect sf9 cells coexpressing p85alpha using PI(4,5)P2 as substrate preincubated with compound for 15 mins measured after 10 mins by HTRF assay. In general terms: In TR-FRET formats the signal depends on donor and acceptor labels being close together.

Data set [13] in a line: AUC (0 to 24 hrs) in CB17/ICR-Prkdc SCID mouse at 10 mg/kg, po. Format: ADME, organism-based. Also noted: time < 24 hr, dose 10 mg/kg, route oral. As to conditions: plasma.
A short description of data set [14]: Terminal half life in CB17/ICR-Prkdc SCID mouse at 6 mg/kg, iv. The conditions noted are these: in vivo, read-out: beta t1/2 (converted). Also noted: dose 6 mg/kg, route intravenous. The data set is classed as ADME, organism-based.
Data set [15] deals with Phosphatidylinositol 4,5-bisphosphate 3-kinase catalytic subunit beta isoform (Homo sapiens, UniProt P42338). The data set can be described thus: Inhibition of human PI3Kbeta-mediated Akt phosphorylation at T308 residue expressed in PTEN-deficient human PC3 cells after 2 hrs by Western blot analysis. Format: cell-based, PC-3.
Chain of Phosphatidylinositol 4,5-bisphosphate 3-kinase catalytic subunit beta isoform (P42338 whole entry, canonical isoform): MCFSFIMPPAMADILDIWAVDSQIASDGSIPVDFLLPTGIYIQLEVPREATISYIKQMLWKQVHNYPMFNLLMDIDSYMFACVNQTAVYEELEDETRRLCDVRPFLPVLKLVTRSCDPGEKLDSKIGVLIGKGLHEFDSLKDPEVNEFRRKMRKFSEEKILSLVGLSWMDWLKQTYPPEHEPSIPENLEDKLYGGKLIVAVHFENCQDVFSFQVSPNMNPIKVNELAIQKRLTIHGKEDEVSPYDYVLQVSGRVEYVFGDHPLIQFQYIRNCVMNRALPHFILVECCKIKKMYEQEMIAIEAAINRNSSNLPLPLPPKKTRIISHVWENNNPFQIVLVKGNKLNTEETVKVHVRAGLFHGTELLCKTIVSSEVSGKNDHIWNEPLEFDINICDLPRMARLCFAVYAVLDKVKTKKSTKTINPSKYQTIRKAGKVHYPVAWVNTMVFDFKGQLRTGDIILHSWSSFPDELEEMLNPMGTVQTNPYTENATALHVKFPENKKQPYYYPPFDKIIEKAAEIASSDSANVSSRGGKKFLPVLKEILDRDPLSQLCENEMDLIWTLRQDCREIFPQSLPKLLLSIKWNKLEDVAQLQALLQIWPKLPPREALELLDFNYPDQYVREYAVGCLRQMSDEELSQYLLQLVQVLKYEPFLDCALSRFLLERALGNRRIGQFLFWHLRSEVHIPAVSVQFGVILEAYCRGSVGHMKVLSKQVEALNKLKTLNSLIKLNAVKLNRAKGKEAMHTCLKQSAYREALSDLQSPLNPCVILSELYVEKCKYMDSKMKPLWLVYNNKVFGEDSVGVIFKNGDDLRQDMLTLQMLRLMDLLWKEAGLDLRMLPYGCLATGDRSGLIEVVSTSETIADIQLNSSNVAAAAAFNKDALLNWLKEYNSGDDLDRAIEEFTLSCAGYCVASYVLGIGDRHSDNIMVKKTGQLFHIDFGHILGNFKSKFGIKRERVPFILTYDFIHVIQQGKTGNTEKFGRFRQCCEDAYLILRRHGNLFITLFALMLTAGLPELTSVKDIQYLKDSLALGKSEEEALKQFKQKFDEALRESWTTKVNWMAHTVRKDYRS
In data set [16] the test system is PC-3. In words: Antitumor activity against PTEN-deficient human PC3 cells xenografted in SCID mouse assessed as tumor growth inhibition at 300 mg/kg, po BID for 9 days measured on day 32 relative to control. Format: functional.
Data set [17] can be described thus: Tmax in CB17/ICR-Prkdc SCID mouse at 10 mg/kg, po. The data set is classed as ADME, organism-based. Set-up: dose 10 mg/kg, route oral. The conditions noted are these: in vivo.
Data set [18] has as its target Cytochrome P450 3A4 (Homo sapiens, UniProt P08684). The data set can be described thus: Inhibition of human recombinant CPY3A4.
Data set [19] concerns Plasma. In words: Plasma concentration in SCID mouse xenografted with PTEN-deficient human PC3 cells at 300 mg/kg, po BID measured after day 4. As to conditions: in vivo. Also noted: dose 300 mg/kg, route oral. Format: ADME, organism-based, PC-3.
The test system of data set [20] is Mus musculus. The data set can be described thus: Inhibition of Akt phosphorylation at T308 residue in plasma of po dosed SCID mouse bearing human PTEN-deficient PC3 cells administered BID. Format: functional, organism-based. The conditions noted are these: PC-3, Plasma.
Data set [21] deals with Mus musculus. In words: Toxicity in SCID mouse bearing PTEN-deficient human PC3 cells at 300 mg/kg, po BID for 9 days. Also noted: dose 300 mg/kg, route oral. The data set is classed as organism-based, PC-3. As to conditions: in vivo, 216 h.

T1 sequence (P42336 whole entry, canonical isoform): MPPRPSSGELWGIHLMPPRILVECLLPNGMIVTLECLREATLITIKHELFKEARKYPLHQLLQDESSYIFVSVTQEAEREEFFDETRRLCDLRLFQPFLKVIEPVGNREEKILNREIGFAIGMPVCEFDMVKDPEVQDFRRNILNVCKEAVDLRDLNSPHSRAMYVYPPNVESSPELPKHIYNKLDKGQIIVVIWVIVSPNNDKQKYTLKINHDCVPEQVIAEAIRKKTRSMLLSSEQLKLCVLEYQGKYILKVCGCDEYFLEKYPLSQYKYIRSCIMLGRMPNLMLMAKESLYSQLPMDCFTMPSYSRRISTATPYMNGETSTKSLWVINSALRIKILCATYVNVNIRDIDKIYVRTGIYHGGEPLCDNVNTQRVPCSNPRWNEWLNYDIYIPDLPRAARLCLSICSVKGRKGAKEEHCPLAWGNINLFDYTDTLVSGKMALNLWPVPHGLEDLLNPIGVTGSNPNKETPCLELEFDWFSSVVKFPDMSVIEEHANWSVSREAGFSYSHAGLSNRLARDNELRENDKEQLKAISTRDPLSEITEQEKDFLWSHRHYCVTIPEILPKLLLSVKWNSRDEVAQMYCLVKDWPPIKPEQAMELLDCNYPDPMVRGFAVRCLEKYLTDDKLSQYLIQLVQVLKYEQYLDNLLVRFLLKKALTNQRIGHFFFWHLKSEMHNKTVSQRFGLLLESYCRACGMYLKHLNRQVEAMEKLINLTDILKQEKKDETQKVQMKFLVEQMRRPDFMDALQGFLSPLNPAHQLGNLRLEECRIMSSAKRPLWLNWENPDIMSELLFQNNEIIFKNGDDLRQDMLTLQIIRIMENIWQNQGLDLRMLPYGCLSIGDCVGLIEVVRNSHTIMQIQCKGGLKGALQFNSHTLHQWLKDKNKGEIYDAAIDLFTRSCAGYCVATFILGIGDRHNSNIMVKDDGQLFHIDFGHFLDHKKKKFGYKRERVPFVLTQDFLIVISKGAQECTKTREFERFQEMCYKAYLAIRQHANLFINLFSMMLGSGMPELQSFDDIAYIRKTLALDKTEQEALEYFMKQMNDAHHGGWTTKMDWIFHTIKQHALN
Chain of Cytochrome P450 3A4 (P08684 whole entry): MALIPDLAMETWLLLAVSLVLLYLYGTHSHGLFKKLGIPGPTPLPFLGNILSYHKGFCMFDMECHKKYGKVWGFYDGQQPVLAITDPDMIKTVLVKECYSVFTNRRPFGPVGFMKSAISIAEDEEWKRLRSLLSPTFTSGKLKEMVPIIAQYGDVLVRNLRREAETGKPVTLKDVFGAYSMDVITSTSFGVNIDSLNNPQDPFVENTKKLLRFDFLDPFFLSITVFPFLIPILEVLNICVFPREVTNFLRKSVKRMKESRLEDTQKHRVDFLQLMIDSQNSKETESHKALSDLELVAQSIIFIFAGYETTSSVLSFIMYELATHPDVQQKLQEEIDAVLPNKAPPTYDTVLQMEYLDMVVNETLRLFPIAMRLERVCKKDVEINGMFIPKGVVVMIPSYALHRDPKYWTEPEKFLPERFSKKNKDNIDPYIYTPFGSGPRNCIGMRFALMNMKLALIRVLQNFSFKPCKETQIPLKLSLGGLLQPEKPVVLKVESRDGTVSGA

`Cn1c(Cc2nc(N3CCOCC3)cc(=O)[nH]2)nc2ccccc21` registered an AUC(0-inf) in [1] of 1.95 µg·h/mL. In [2], the solubility thermodynamic at 16 h is 65 µM (≈ 21.1 µg/mL). Further, the concentration at 24 h in [3] was determined as 0.7 µM. The concentration at 0.5 h in [4] was 13 µM. Further, the half-life in [5] was 3.9 h; in data set [14], 4.4 h. In addition, the AUC(0-t) at 24 h amounted to 1.95 µg·h/mL in [6] and 0.846 µg·h/mL in [13]. Besides, the bioavailability in data set [7] came out at 26%. The IC50 in data set [8] is over 10 µM; in data set [10], over 10 µM; in [12] it was over 10 µM; in [15], 0.188 µM; in data set [18] it was over 40 µM. The compound further had a C0 in data set [9] of 4.87 µg/mL. Further, the concentration at 1 h in data set [11] is 22 µM. The T/C in [16] turned out to be 45%. In addition, the Tmax in data set [17] stood at 0.5 h. Besides, in data set [19], the Drug uptake result is recorded as “Active”. The EC50 in data set [20] turned out to be 1.6 µM. Also, the Activity entry in data set [21] is “Non-toxic”.

Broadly, the AUC(0-inf) is the area under the concentration-time curve extrapolated to infinity. High values mean high exposure, low ones low exposure. One may read the AUC(0-t) as exposure summed from dosing to a finite time, without extrapolation to infinity. Read a low AUC(0-t) as low exposure. As a reminder, the bioavailability is dose-corrected exposure relative to a reference, in per cent. A word on the IC50: it is the concentration at which inhibition is half-maximal. As usually defined, the T/C is the result in the treated group divided by that in the control group, in per cent. The Tmax is the time at which the peak concentration occurs. By EC50 is commonly meant the concentration needed to bring the measured effect to its halfway point.
